Results on seven substances are retold here after paper PMC7507342, “A Cell‐Free Platform Based on Nisin Biosynthesis for Discovering Novel Lanthipeptides and Guiding their Overproduction In Vivo” (Advanced Science, 2020).

Non-standard residues stand in square brackets, D forms with d. No end group written: not given here. Dhb = C/C=C(\N)C(=O)O; Dha = C=C(N)C(=O)O

The test system of one assay is M. luteus. Nature of the assay: MIC determination in 96-well plates. The settings on record: for MIC M. luteus: 96-well plate, bioassay medium, 5.0 × 10^5 CFU mL^−1, 37 °C, 24 h, OD600, n=3. It is filed as cell-based, Micrococcus luteus. From the text:
(§1) The CFPS system is for quick screening of potential antimicrobial lanthipeptides, and we then purified enough compounds of the screened nisin analogs for structure identification and activity assays. We prepared mLanAs for the novel lanthipeptides (RL6, RL8, RL13, and RL14) in E. coli (Table S2, Supporting Information) and removed their leader peptides in vitro, as it is more economical to mass produce targeted lanthipeptides using this previously reported method^[ ^4 ^] rather than to use CFPS to mass produce lanthipeptides. Nisin and most lanthipeptides are not pure products in the commercially available and standard products, they are a mixture of different dehydrating ingredients resulting from incomplete NisB catalysis. Therefore, we verified that the decisive antibacterial component in the currently commercially available nisin is the eightfold dehydrated component (Figure S5, Supporting Information). […] We treated the novel lanthipeptides with the thiol‐alkylating reagent N‐ethylmaleimide (NEM) to sequester any noncyclic Cys residues, and evaluated ring topology using LC‐MS (Figure S7, Supporting Information). […] We quantified these four novel lanthipeptides using the purified eight‐fold dehydrated component of nisin as a standard.
(§2) MICs were determined according to a previously described method^[ ^38 ^] with minor modifications. Briefly, the test medium for clinical strain species was MHB broth (BD Difco), LB broth was used for E. coli, and bioassay medium containing 1.2% tryptone, 0.75% yeast extract, 0.75% NaCl, 0.3% NaH2PO4, and 0.75% glucose was used for M. luteus. Bacteria were grown overnight to the early stationary phase and adjusted in corresponding culture medium to 5.0 × 10^5 CFU mL^−1 in the wells of 96‐well microtiter plates, mixed with varying concentrations of test compounds, and incubated at 37 °C for 24 h. Cell growth was evaluated by measuring the optical density at 600 nm, and the MIC was defined as the lowest compound concentration at which no bacterial growth was observed.
(§3) Table S3. MIC Values of Several Lanthipeptides Against Microorganisms
(§4) MIC* mg/L(μM) M. luteus E. faecalis S. aureus MRSA
(§5) Note: * The test lanthipeptide is a mixture of different dehydration molecules . Quantification of
(§6) lanthipeptides was performed using the eight-fold dehydrated molecules (n=3). The data

Assay [1] has as its system E. faecalis (clinical pathogenic strain). Nature of the assay: MIC determination in 96-well plates. The assay is classed as cell-based, Enterococcus faecalis. The settings on record: for MIC E. faecalis: 96-well plate, MHB broth, 5.0 × 10^5 CFU mL^−1, 37 °C, 24 h, OD600, quantified as eight-fold dehydrated molecules, n=3.
Source text: as §1, §2, §3, §4, §5, §6

The test system of assay [2] is S. aureus (clinical pathogenic strain). The assay can be described thus: MIC determination in 96-well plates. The assay is classed as cell-based, Staphylococcus aureus. The settings on record: 96-well plate, MHB broth, 5.0 × 10^5 CFU mL^−1, 37 °C, 24 h, OD600, quantified as eight-fold dehydrated molecules, n=3.
Source text: as §1, §2, §3, §4, §5, §6

For assay [3], the system named is MRSA (clinical pathogenic strain). The assay can be described thus: MIC determination in 96-well plates. It is filed as cell-based, methicillin‐resistant S. aureus. The conditions noted are these: 96-well plate, MHB broth, 5.0 × 10^5 CFU mL^−1, 37 °C, 24 h, OD600, quantified as eight-fold dehydrated molecules, n=3.
Source text: as §1, §2, §3, §4, §5, §6

The subject of assay [4] is Micrococcus luteus NCIB 8166. Nature of the assay: Agar diffusion bioassay of CFPS mixture. The settings on record: agar diffusion method; CFPS reaction 6 h. The assay is classed as cell-based. The protocol:
We evaluated the performance of our CFPS platform for nisin biosynthesis. Each plasmid (0.5 nmol L^−1) (pJL1‐nisZ, pET28a‐nisB, pET28a‐nisC, and pET28a‐nisP) was added into the CFPS platform and incubated for 6 h (Figure 1A). The 400 µL of reaction mixture was concentrated to 20 µL and the concentrated mixture was then detected by tandem mass spectrometry (LC‐MS‐MS). The results confirmed that fully modified nisin Z was produced in the CFPS mixture (Figure 1B).
These hybrid precursor peptides were then cloned into the pJL1 plasmid. Bagelicin, a nisin analog with antibacterial activity that was identified using a previously described in vivo screening system,^[ ^5 ^] was chosen as the positive control for validation. The pJL1‐nisZ plasmid in our CFPS platform was replaced with the hybrid precursor peptide plasmids (pRL1‐pRL18 and pJL1‐bagelicin). After incubation for 6 h, the bagelicin CFPS mixture (positive control) was analyzed by LC‐MS‐MS and bioassays.
The activity levels of nisin and new lanthipeptides were determined by a previously described agar diffusion method, with minor modifications.^[ ^37 ^] Briefly, a stock nisin solution 1000 IU mL^−1) was prepared by adding 50 mg of commercial nisin (10^6 IU g^−1; Sigma‐Aldrich, St. Louis, MO, USA) into 50 mL of sterile 0.02 mol L^−1 HCl. […]
(A growth-free zone around the sample is the usual read-out of agar diffusion tests.)

In a further assay the test system is E. coli DH5α. Nature of the assay: E. coli DH5α growth (OD600) in LB medium with EDTA and purified lanthipeptide. It is filed as cell-based, Escherichia coli. The protocol: Figure 4 Screening of nisin mutants using the CFPS system. A) Schematic illustration of the screening for nisin mutants. B) Nisin and nisin mutants. Dha, dehydrolalanine; Dhb, dehydrobutyrine; Abu, 2‐aminobutyric acid. C) Heat‐map of antimicrobial activity of nisin mutants against E. coli in the second round of screening. After adding the CFPS mixture to E. coli and incubating for 8 h, the ΔOD600 value represents the OD600 of E. coli with added nisin mutant CFPS mixture minus the OD600 (control group) of E. coli with nisin CFPS mixture in the same plate. Yellow areas represent an inhibitory effect on E. coli. […] The test lanthipeptide is a mixture of different dehydration molecules, quantification of lanthipeptides was performed using the eightfold dehydrated molecules. […]
Next, to verify the reliability of the CFPS platform for screening, abundant lanthipeptides are required to characterize the structure and anti‐E. coli ability of the mutants. […] The structures were identified by LC‐MS‐MS (Figure 4B; Figure S6, Supporting Information) and the […] rings were detected by NEM reaction (Figure S7, Supporting Information). […]
Figure S8. OD600 of E. coli DH5α in LB Medium with Different Concentrations of EDTA and Nisin after 18 h of Co-culture (n=3) ΔOD600 indicates the difference between readings with different concentrations of blank media. […]

Where [5] appears, read: mixture of dehydration molecules quantified as eight-fold dehydrated molecules.
Where [6] appears, read: value in parentheses, quantified as eight-fold dehydrated molecules.
[7] abbreviates: summary of Table S3 in the text.

With “IT SKSLC TPGCKTGALMT CPIKTAT CGCHFGN (bicyclic or more) [RL13, novel lanthipeptide, nisin analog, core peptide from Streptococcus equinus]”, the “MIC M. luteus” value in the assay with M. luteus (setting [5]) was 0.24 µg/mL; with M. luteus (setting [6]), 0.077 µM. Further, the “MIC E. faecalis” value in assay [1] came to 250 µg/mL; in assay [1] (value in parentheses), 80.8 µM. The “MIC S. aureus” value in assay [2] is more than 250 µg/mL; in assay [2] (value in parentheses), more than 80.8 µM. Further, the “MIC MRSA” value was more than 250 µg/mL in assay [3] and more than 80.8 µM in assay [3] (value in parentheses).

Regarding “IT SKSLC TPGCVTGVLMGCALKTIT CNC SVGIGKK (bicyclic or more) [RL14, novel lanthipeptide, nisin analog, core peptide from Enterococcus rotai/Enterococcus moraviensis]”, the “MIC M. luteus” value was determined as 0.015 µg/mL in the assay with M. luteus (setting [5]) and 0.0045 µM in the assay with M. luteus (setting [6]). The “antibacterial activity against M. luteus (in words)” value in the assay on M. luteus (setting [7]) is on record as “outperforming nisin”. The “MIC E. faecalis” value in assay [1] amounted to 62.5 µg/mL; in assay [1] (value in parentheses), 18.69 µM. Further, in assay [1] (setting [7]), the “antibacterial activity against E. faecalis (in words)” value is “outperforming nisin”. Moreover, the “MIC S. aureus” value stood at 250 µg/mL in assay [2] and 74.75 µM in assay [2] (value in parentheses). Moreover, the figures for the “MIC MRSA” value in assay [3] and in assay [3] (value in parentheses) were 250 µg/mL and 74.75 µM, respectively.

Turning to “IT SVSLC TPGCKTGALMGCNMKTAS CGCHVHVSK (bicyclic or more) [RL6, novel lanthipeptide, nisin analog, core peptide from Leuconostoc gelidum]”, the “MIC M. luteus” value in the assay with M. luteus (setting [5]) turned out to be 0.12 µg/mL; in the assay on M. luteus (setting [6]) it was 0.037 µM. Also, the “MIC E. faecalis” value stood at 250 µg/mL in assay [1] and 76.17 µM in assay [1] (value in parentheses). Besides, the “MIC S. aureus” value in assay [2] was more than 250 µg/mL; in assay [2] (value in parentheses), more than 76.17 µM. Moreover, the “MIC MRSA” value in assay [3] is more than 250 µg/mL; in assay [3] (value in parentheses), more than 76.17 µM.

In the case of “Nisin A: commercialized nisin, class I lanthipeptide, food preservative (I[Dhb]SI[Dha]LCTPGCKTGALMGCNMKTATCHCSIHV[Dha]K; cysteine pairing not given here; also: lanthipeptide thioether crosslinks and dehydrated residues, positions not given here; UniProt P13068 24-57, looked up) [reference compound]”, the figures for the “MIC M. luteus” value in the assay with M. luteus (setting [5]) and with M. luteus (setting [6]) were 0.06 µg/mL and 0.018 µM, respectively. In addition, the “MIC E. faecalis” value was determined as 250 µg/mL in assay [1] and 74.53 µM in assay [1] (value in parentheses). For the same substance, the “MIC S. aureus” value was 125 µg/mL in assay [2] and 37.27 µM in assay [2] (value in parentheses). Besides, the “MIC MRSA” value in assay [3] stood at 125 µg/mL; in assay [3] (value in parentheses), 37.27 µM.

On to “Nisin Z: type I lanthipeptide nisin Z, synthesized by CFPS or from mLanA expressed in E. coli (I[Dhb]SI[Dha]LCTPGCKTGALMGCNMKTATCNCSIHV[Dha]K; cysteine pairing not given here; also: lanthipeptide thioether crosslinks and dehydrated residues, positions not given here; UniProt P29559 24-57, looked up) [reference compound]”, for which the “antibacterial activity of CFPS mixture on M. luteus plate (in words)” value in assay [4] is recorded as “obvious zone of inhibition”. The “MIC M. luteus” value in the assay with M. luteus (setting [5]) is 0.12 µg/mL; in the assay with M. luteus (setting [6]), 0.036 µM. In addition, the “MIC E. faecalis” value in assay [1] was determined as 250 µg/mL; in assay [1] (value in parentheses), 75.05 µM. The “MIC S. aureus” value in assay [2] came to 250 µg/mL; in assay [2] (value in parentheses) it was 75.05 µM. Also, the “MIC MRSA” value was 125 µg/mL in assay [3] and 37.52 µM in assay [3] (value in parentheses). Also, in the assay on E. coli DH5α (320 μM EDTA, nisin Z 24, 48, 96 μM, 18 h co-culture, n=3 (Figure S8)), the “inhibition of E. coli DH5α growth with EDTA (OD600)” value is reported as “obvious”. Also, the “inhibition of E. coli DH5α growth at 20-fold the reported nisin concentration” value in the assay on E. coli DH5α (18 h co-culture (Figure S8)) is “did not exhibit”.

With “VT SISLC TPGCKTGILMT CAIKTAT CGCHF [Bagelicin]”, in assay [4], the “antibacterial activity of CFPS mixture on M. luteus plate (in words)” value is “contained anti‐M. luteus activity”.

Regarding “VT SKSLC TPGCKTGILQT CAIKSAT CGC SIHIGK (bicyclic or more) [RL8, novel lanthipeptide, nisin analog, core peptide from Bacillus cereus]”, the “MIC M. luteus” value in the assay with M. luteus (setting [5]) was determined as 0.24 µg/mL; with M. luteus (setting [6]), 0.073 µM. Besides, the “MIC E. faecalis” value came out at 250 µg/mL in assay [1] and 76.52 µM in assay [1] (value in parentheses). Moreover, the “MIC S. aureus” value in assay [2] is more than 250 µg/mL; in assay [2] (value in parentheses), more than 76.52 µM. Further, the “MIC MRSA” value in assay [3] was more than 250 µg/mL; in assay [3] (value in parentheses), more than 76.52 µM.
